Results on 10 molecules are retold here after US12679860B2, “C-terminal HSP90 inhibitors” (UNIVERSITY OF KANSAS, priority 2012, dated 2026).

A word on the EC50: it is the midpoint of the concentration-response curve. As a reminder, the viability is a read-out of living cells in per cent, often relative to untreated cells.

Assay [1] concerns embryonic dorsal root ganglion (DRG) sensory neuron cultures. Nature of the assay: Glucotoxicity assay: cell viability (calcein AM) of DRG sensory neurons under glucose-induced toxicity. It is filed as cell-based, Sprague Dawley rat. The settings on record: for EC50: 0.1-1000 nM novologue overnight, then 4 hrs of hyperglycemia, mean±SEM (n=3-8), read-out: EC50 for protection against glucose-induced toxicity; for protection against glucose-induced toxicity (in words): 1 μM novologue + 20 mM excess glucose; for viability at 1 µM: Table 1, 1 μM of each novologue + 20 mM excess glucose, glucose + DMSO was 54% ± 2. How it is done: DRG sensory neurons were incubated in the absence or presence of 0.1-1000 nM of the indicated novologue overnight and then subjected to 4 hrs of hyperglycemia.
The ganglia were sedimented at 1,000×g for 5 min, resuspended in growth media [phenol red free Neurobasal medium (Gibco, Grand Island, NY) containing 25 mM glucose, 1X B-27 additive, 50 ng/ml NGF (Harlan Bioscience, Indianapolis, IN), 4 mM glutamine, 100 U/mL penicillin and 100 μg/mL streptomycin] and triturated with a fire-polished glass pipette. The cells were cultured on collagen-coated (0.1 mg/mL collagen followed by overnight air drying in a laminar flow hood) black-walled 96-well plates (Corning Incorporated Corning, NY) at a seeding density of 2-3×10^4 cells per well. DRG neurons were re-fed the next day with fresh growth media containing 40 μM fluorodeoxyuridine and 10 μM cytosine β-D-arabinoside (both from Sigma Aldrich, St. Louis, MO) for 2 days to remove proliferating cells. Experiments were performed on DRG neurons on the third day in culture after placing the cells in fresh growth medium. […]
DRG neurons were incubated overnight with the test compounds in the presence of Neurobasal medium, 50 ng/ml NGF and antibiotics only. In order to monitor the efficiency of the compounds in protecting DRG neurons against glucotoxicity, Calcein AM (Invitrogen, Carlsbad, CA) was utilized to measure cell viability. Hydrolysis of calcein AM to a fluorescent product can only occur in live cells. Excess glucose was added to the cultures for 4 hrs and cell viability was measured by incubating the cells with 2 μM calcein AM for 30 min in the dark at 37° C. Fluorescence was then measured using a plate reader with excitation and emission wavelengths set to 485 nm and 520 nm, respectively. The arbitrary fluorescence readings were normalized to the total amount of protein from each respective well of the neuronal cultures. The protein concentrations in each well were determined using the DC protein assay (Bio-Rad). Significant differences in the efficacy of the novologues for increasing cell viability were determined using a Kruskal-Wallis non-parametric ANOVA and Dunn's post-test.

The subject of the next assay is diabetic mice. The settings on record: weekly treatment, cited from earlier work.
In assay [2] the test system is myelinated cultures of sensory neurons prepared from Hsp70.1 and 70.3 double knockout mice. The settings on record: sensory neurons from Hsp70.1 and 70.3 double knockout mice; cited from earlier work.
Another assay has as its system Hsp70. Put plainly: Immunoblot analysis of induction of Hsp70 in DRG sensory neurons. It is filed as cell-based, Sprague Dawley rat. The settings on record: 24 hours incubation, then 4 hours of glucotoxic stress; Hsp70 normalized to β-actin. As to the method: DRG sensory neurons were incubated in the presence of DMSO (Cntrl) or 10-1000 nM of the indicated novologue overnight and then subjected to 4 hrs of hyperglycemia. The neurons were harvested and Hsp70 and β-actin levels were determined by immunoblot analysis. Band intensity was quantified using Image J, Hsp70 expression was normalized to the level of β-actin.
Since it was previously shown that the cytoprotective activity manifested by KU-32 requires Hsp70, the ability of 11b and 11n to induce Hsp70 was determined relative to KU-32. Increasing concentrations of KU-32, 11n, and 11b were incubated with DRG sensory neurons for 24 hours before the cells were subjected to 4 hours of glucotoxic stress. Hsp70 levels were examined by performing immunoblot analysis with the cellular lysates (FIG. 5). 11n and 11b induced Hsp70 levels at similar concentrations (10 nM) as those needed for neuroprotection.
DRG from embryonic day 15-18 Sprague Dawley rat pups were harvested into Leibovitz's L15 medium (L15) and dissociated with 0.25% trypsin for 30 min at 37° C. […]
On the technique in general: A western blot detects proteins with antibodies after separation by electrophoresis.

SMILES strings stand for the structures. Read-outs that look alike come from different tables or passages of the source.

As to `CO[C@@H]1[C@@H](O)[C@@H](O)[C@H](Oc2ccc3cc(NC(C)=O)c(=O)oc3c2C)OC1(C)C` [KU-32], the EC50 in assay [1] was 240 ± 42.5 nM. In addition, in the assay with diabetic mice (diabetic Hsp70 knockout mice), the “reversal of clinical indices of DPN” value is on record as “unable to reverse multiple clinical indices of DPN”. Also, in the assay with diabetic mice (diabetic wild type mice), the “sensory and motor nerve function” value was “restored normal sensory and motor nerve function”. Moreover, the “prevention of neuregulin-induced demyelination” value in assay [2] was “ineffective”.
In the case of `CO[C@@H]1[C@@H](O)[C@@H](O)C(Oc2ccc(CCNC(C)=O)c(-c3cccc(F)c3)c2)OC1(C)C` (stereo partly drawn) [11b, N-(2-(5-(((3R,4S,5R)-3,4-dihydroxy-5-methoxy-6,6-dimethyltetrahydro-2H-pyran-2-yl)oxy)-3′-fluoro-[1,1′-biphenyl]-2-yl)ethyl)acetamide], the “protection against glucose-induced toxicity (in words)” value (from here on “protection”) in assay [1] is recorded as “showed significant protection against glucotoxicity”. Moreover, in assay [1] (Rattus norvegicus, Neuron), the EC50 was 13 ± 3.6 nM and the viability at 1 µM was 95%. Also, the “concentration at which Hsp70 levels were induced” value in the assay on Hsp70 is 10 nM.
In the case of `CO[C@@H]1[C@@H](O)[C@@H](O)C(Oc2ccc(CCNC(C)=O)c(-c3ccc4c(c3)OCO4)c2)OC1(C)C` (stereo partly drawn) [11n, N-(2-(benzo[d][1,3]dioxol-5-yl)-4-(((3R,4S,5R)-3,4-dihydroxy-5-methoxy-6,6-dimethyltetrahydro-2H-pyran-2-yl)oxy)phenethyl)acetamide], in assay [1] (Rattus norvegicus, Neuron), the EC50 is 18.4 ± 3.2 nM and the viability at 1 µM was 83%. The “concentration at which Hsp70 levels were induced” value in the assay with Hsp70 came out at 10 nM.
`CO[C@@H]1[C@@H](O)[C@@H](O)C(Oc2ccc(CCNC(C)=O)c(-c3ccccc3SC)c2)OC1(C)C` (stereo partly drawn) [11h, N-(2-(5-(((3R,4S,5R)-3,4-dihydroxy-5-methoxy-6,6-dimethyltetrahydro-2H-pyran-2-yl)oxy)-2′-(methylthio)-[1,1′-biphenyl]-2-yl)ethyl)acetamide]: in assay [1] (Rattus norvegicus, Neuron), the EC50 is 384 ± 108 nM and the viability at 1 µM is 83%. Also, the “EC50 fold greater than KU-32” value in assay [1] (protection against glucose-induced toxicity) is “approximately 1.6 fold”.
Turning to `CO[C@@H]1[C@@H](O)[C@@H](O)C(Oc2ccc(CCNC(C)=O)c(-c3cccc(C(F)(F)F)c3)c2)OC1(C)C` (stereo partly drawn) [11f, N-(2-(5-(((3R,4S,5R)-3,4-dihydroxy-5-methoxy-6,6-dimethyltetrahydro-2H-pyran-2-yl)oxy)-3′-(trifluoromethyl)-[1,1′-biphenyl]-2-yl)ethyl)acetamide], in assay [1], the “protection” value was “showed significant protection against glucotoxicity”. For the same molecule, in assay [1] (Rattus norvegicus, Neuron), the EC50 was 188 ± 43.5 nM and the viability at 1 µM was 83%.
Consider `CO[C@@H]1[C@@H](O)[C@@H](O)C(Oc2ccc(CCNC(C)=O)c(-c3ccc(F)cc3)c2)OC1(C)C` (stereo partly drawn) [11c, N-(2-(5-(((3R,4S,5R)-3,4-dihydroxy-5-methoxy-6,6-dimethyltetrahydro-2H-pyran-2-yl)oxy)-4′-fluoro-[1,1′-biphenyl]-2-yl)ethyl)acetamide], for which the “protection” value in assay [1] is “showed significant protection against glucose-induced cell death”. Further, the viability at 1 µM in assay [1] (Rattus norvegicus, Neuron) is 75%.
In the case of `CO[C@@H]1[C@@H](O)[C@@H](O)C(Oc2ccc(CCNC(C)=O)c(-c3ccccc3Cl)c2)OC1(C)C` (stereo partly drawn) [11d, N-(2-(2′-chloro-5-(((3R,4S,5R)-3,4-dihydroxy-5-methoxy-6,6-dimethyltetrahydro-2H-pyran-2-yl)oxy)-[1,1′-biphenyl]-2-yl)ethyl)acetamide], the “protection” value in assay [1] is given as “showed significant protection against glucose-induced cell death”. Also, the viability at 1 µM in assay [1] (Rattus norvegicus, Neuron) is 71%.
As to `CO[C@@H]1[C@@H](O)[C@@H](O)C(Oc2ccc(CCNC(C)=O)c(-c3ccccc3)c2)OC1(C)C` (stereo partly drawn) [11a, N-(2-(5-(((3R,4S,5R)-3,4-dihydroxy-5-methoxy-6,6-dimethyltetrahydro-2H-pyran-2-yl)oxy)-[1,1′-biphenyl]-2-yl)ethyl)acetamide], in assay [1] (Rattus norvegicus, Neuron), the viability at 1 µM was 76%.
`COc1cccc(-c2cc(OC3OC(C)(C)[C@H](OC)[C@@H](O)[C@H]3O)ccc2CCNC(C)=O)c1` (stereo partly drawn) [11j, N-(2-(5-(((3R,4S,5R)-3,4-dihydroxy-5-methoxy-6,6-dimethyltetrahydro-2H-pyran-2-yl)oxy)-3′-methoxy-[1,1′-biphenyl]-2-yl)ethyl)acetamide]: the viability at 1 µM in assay [1] (Rattus norvegicus, Neuron) was 78%.
For `CO[C@@H]1[C@@H](O)[C@@H](O)C(Oc2ccc(CCNC(C)=O)c(-c3ccc(C(F)(F)F)cc3)c2)OC1(C)C` (stereo partly drawn) [11g, N-(2-(5-(((3R,4S,5R)-3,4-dihydroxy-5-methoxy-6,6-dimethyltetrahydro-2H-pyran-2-yl)oxy)-4′-(trifluoromethyl)-[1,1′-biphenyl]-2-yl)ethyl)acetamide], the “protection” value in assay [1] is listed as “showed significant protection against glucose-induced cell death”. In addition, in assay [1] (Rattus norvegicus, Neuron), the viability at 1 µM was 74%.
